{"source": "PubChem BioAssay AID1963979", "about": "(Molecular Pharmacology Branch, DTP, NCI, 2024)", "tested_on": "361931-004-R-J1-PDC multicell spheroid viability", "assay": "Anticancer human tumor 361931-004-R-J1-PDC patient-derived colon adenocarcinoma cell line growth inhibition [PI3K]", "conditions": "for IC50: curve of first compound; for viability, T/C: stronger effect = lower value", "procedure,_shortened": "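Spheroid viability read-out. Co-cultures contained the tumor line plus HUVEC and human MSCs. Each agent was paired with a PI3K inhibitor (inavolisib, alpelisib, duvelisib, copanlisib) across half-log dilutions starting at clinical Cmax, or at 10 microM when Cmax was unknown.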", "key": {"[1]": {"conditions": "second compound 0.0316 µM, first compound 0.0316 µM"}, "[2]": {"conditions": "second compound 0.0316 µM, first compound 0.1 µM"}, "[3]": {"conditions": "second compound 0.1 µM, first compound 0.0316 µM"}, "[4]": {"conditions": "second compound 0.1 µM, first compound 0.1 µM"}, "[5]": {"conditions": "second compound 0.316 µM, first compound 0.0316 µM"}, "[6]": {"conditions": "second compound 0.316 µM, first compound 0.1 µM"}, "[7]": {"conditions": "second compound 1 µM, first compound 0.0316 µM"}, "[8]": {"conditions": "second compound 1 µM, first compound 0.1 µM"}, "[9]": {"conditions": "second compound 3.16 µM, first compound 0.0316 µM"}, "[10]": {"conditions": "second compound 3.16 µM, first compound 0.1 µM"}, "[11]": {"conditions": "second compound 10 µM, first compound 0.0316 µM"}, "[12]": {"conditions": "second compound 10 µM, first compound 0.1 µM"}}, "data": [{"compound": "CC(C)n1nc(-c2ccc3oc(N)nc3c2)c2c(N)ncnc21", "note": "+ Cc1nc(NC(=O)N2CCCC2C(N)=O)sc1-c1ccnc(C(C)(C)C(F)(F)F)c1;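 note: spheroids exposed to agents for seven days before readout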", "values": [{"measurement": "IC50", "setting": "second compound 0.0316 µM", "result": "> 0.1", "unit": "µM"}, {"measurement": "IC50", "setting": "second compound 0.1 µM", "result": "> 0.1", "unit": "µM"}, {"measurement": "IC50", "setting": "second compound 0.316 µM", "result": 0.0991, "unit": "µM"}, {"measurement": "IC50", "setting": "second compound 1 µM", "result": 0.0704, "unit": "µM"}, {"measurement": "IC50", "setting": "second compound 3.16 µM", "result": 0.0541, "unit": "µM"}, {"measurement": "IC50", "setting": "second compound 10 µM", "result": 0.0216, "unit": "µM"}, {"measurement": "viability, T/C", "setting": "second compound 0.0316 µM, first compound 0.000316 µM", "result": 102, "unit": "%"}, {"measurement": "viability, T/C", "setting": "second compound 0.0316 µM, first compound 0.001 µM", "result": 101, "unit": "%"}, {"measurement": "viability, T/C", "setting": "second compound 0.0316 µM, first compound 0.00316 µM", "result": 97.8, "unit": "%"}, {"measurement": "viability, T/C", "setting": "second compound 0.0316 µM, first compound 0.01 µM", "result": 97.8, "unit": "%"}, {"measurement": "viability, T/C", "setting": "[1]", "result": 101, "unit": "%"}, {"measurement": "viability, T/C", "setting": "[2]", "result": 64.5, "unit": "%"}, {"measurement": "viability, T/C", "setting": "second compound 0.1 µM, first compound 0.000316 µM", "result": 108, "unit": "%"}, {"measurement": "viability, T/C", "setting": "second compound 0.1 µM, first compound 0.001 µM", "result": 111, "unit": "%"}, {"measurement": "viability, T/C", "setting": "second compound 0.1 µM, first compound 0.00316 µM", "result": 99.3, "unit": "%"}, {"measurement": "viability, T/C", "setting": "second compound 0.1 µM, first compound 0.01 µM", "result": 101, "unit": "%"}, {"measurement": "viability, T/C", "setting": "[3]", "result": 90.2, "unit": "%"}, {"measurement": "viability, T/C", "setting": "[4]", "result": 58.1, "unit": "%"}, {"measurement": "viability, T/C", "setting": "second compound 0.316 µM, first compound 0.000316 µM", "result": 106, "unit": "%"}, {"measurement": "viability, T/C", "setting": "second compound 0.316 µM, first compound 0.001 µM", "result": 93.8, "unit": "%"}, {"measurement": "viability, T/C", "setting": "second compound 0.316 µM, first compound 0.00316 µM", "result": 96.8, "unit": "%"}, {"measurement": "viability, T/C", "setting": "second compound 0.316 µM, first compound 0.01 µM", "result": 93.7, "unit": "%"}, {"measurement": "viability, T/C", "setting": "[5]", "result": 88.9, "unit": "%"}, {"measurement": "viability, T/C", "setting": "[6]", "result": 49, "unit": "%"}, {"measurement": "viability, T/C", "setting": "second compound 1 µM, first compound 0.000316 µM", "result": 94.2, "unit": "%"}, {"measurement": "viability, T/C", "setting": "second compound 1 µM, first compound 0.001 µM", "result": 89, "unit": "%"}, {"measurement": "viability, T/C", "setting": "second compound 1 µM, first compound 0.00316 µM", "result": 82.3, "unit": "%"}, {"measurement": "viability, T/C", "setting": "second compound 1 µM, first compound 0.01 µM", "result": 91.3, "unit": "%"}, {"measurement": "viability, T/C", "setting": "[7]", "result": 72.9, "unit": "%"}, {"measurement": "viability, T/C", "setting": "[8]", "result": 39.9, "unit": "%"}, {"measurement": "viability, T/C", "setting": "second compound 3.16 µM, first compound 0.000316 µM", "result": 83.9, "unit": "%"}, {"measurement": "viability, T/C", "setting": "second compound 3.16 µM, first compound 0.001 µM", "result": 85.2, "unit": "%"}, {"measurement": "viability, T/C", "setting": "second compound 3.16 µM, first compound 0.00316 µM", "result": 83.8, "unit": "%"}, {"measurement": "viability, T/C", "setting": "second compound 3.16 µM, first compound 0.01 µM", "result": 68.9, "unit": "%"}, {"measurement": "viability, T/C", "setting": "[9]", "result": 72.3, "unit": "%"}, {"measurement": "viability, T/C", "setting": "[10]", "result": 29.6, "unit": "%"}, {"measurement": "viability, T/C", "setting": "second compound 10 µM, first compound 0.000316 µM", "result": 65, "unit": "%"}, {"measurement": "viability, T/C", "setting": "second compound 10 µM, first compound 0.001 µM", "result": 62.4, "unit": "%"}, {"measurement": "viability, T/C", "setting": "second compound 10 µM, first compound 0.00316 µM", "result": 64, "unit": "%"}, {"measurement": "viability, T/C", "setting": "second compound 10 µM, first compound 0.01 µM", "result": 60, "unit": "%"}, {"measurement": "viability, T/C", "setting": "[11]", "result": 45, "unit": "%"}, {"measurement": "viability, T/C", "setting": "[12]", "result": 19.2, "unit": "%"}]}, {"compound": "CCCS(=O)(=O)Nc1ccc(F)c(C(=O)c2c[nH]c3ncc(-c4ccc(Cl)cc4)cc23)c1F", "note": "+ Cc1nc(NC(=O)N2CCCC2C(N)=O)sc1-c1ccnc(C(C)(C)C(F)(F)F)c1", "values": [{"measurement": "IC50", "setting": "second compound 0.0316 µM", "result": 4.92, "unit": "µM"}, {"measurement": "IC50", "setting": "second compound 0.1 µM", "result": 5.57, "unit": "µM"}, {"measurement": "IC50", "setting": "second compound 0.316 µM", "result": 5.01, "unit": "µM"}, {"measurement": "IC50", "setting": "second compound 1 µM", "result": 3.5, "unit": "µM"}, {"measurement": "IC50", "setting": "second compound 3.16 µM", "result": 2.09, "unit": "µM"}, {"measurement": "IC50", "setting": "second compound 10 µM", "result": 0.624, "unit": "µM"}, {"measurement": "viability, T/C", "setting": "[1]", "result": 96.2, "unit": "%"}, {"measurement": "viability, T/C", "setting": "[2]", "result": 101, "unit": "%"}, {"measurement": "viability, T/C", "setting": "second compound 0.0316 µM, first compound 0.316 µM", "result": 88.6, "unit": "%"}, {"measurement": "viability, T/C", "setting": "second compound 0.0316 µM, first compound 1 µM", "result": 99.7, "unit": "%"}, {"measurement": "viability, T/C", "setting": "second compound 0.0316 µM, first compound 3.16 µM", "result": 78.4, "unit": "%"}, {"measurement": "viability, T/C", "setting": "second compound 0.0316 µM, first compound 10 µM", "result": 4.57, "unit": "%"}, {"measurement": "viability, T/C", "setting": "[3]", "result": 107, "unit": "%"}, {"measurement": "viability, T/C", "setting": "[4]", "result": 86.1, "unit": "%"}, {"measurement": "viability, T/C", "setting": "second compound 0.1 µM, first compound 0.316 µM", "result": 87.2, "unit": "%"}, {"measurement": "viability, T/C", "setting": "second compound 0.1 µM, first compound 1 µM", "result": 91.6, "unit": "%"}, {"measurement": "viability, T/C", "setting": "second compound 0.1 µM, first compound 3.16 µM", "result": 95.5, "unit": "%"}, {"measurement": "viability, T/C", "setting": "second compound 0.1 µM, first compound 10 µM", "result": 4.97, "unit": "%"}, {"measurement": "viability, T/C", "setting": "[5]", "result": 94.3, "unit": "%"}, {"measurement": "viability, T/C", "setting": "[6]", "result": 92.1, "unit": "%"}, {"measurement": "viability, T/C", "setting": "second compound 0.316 µM, first compound 0.316 µM", "result": 80.7, "unit": "%"}, {"measurement": "viability, T/C", "setting": "second compound 0.316 µM, first compound 1 µM", "result": 86.9, "unit": "%"}, {"measurement": "viability, T/C", "setting": "second compound 0.316 µM, first compound 3.16 µM", "result": 80.5, "unit": "%"}, {"measurement": "viability, T/C", "setting": "second compound 0.316 µM, first compound 10 µM", "result": 4.14, "unit": "%"}, {"measurement": "viability, T/C", "setting": "[7]", "result": 89.2, "unit": "%"}, {"measurement": "viability, T/C", "setting": "[8]", "result": 88.8, "unit": "%"}, {"measurement": "viability, T/C", "setting": "second compound 1 µM, first compound 0.316 µM", "result": 75.9, "unit": "%"}, {"measurement": "viability, T/C", "setting": "second compound 1 µM, first compound 1 µM", "result": 73.3, "unit": "%"}, {"measurement": "viability, T/C", "setting": "second compound 1 µM, first compound 3.16 µM", "result": 57.3, "unit": "%"}, {"measurement": "viability, T/C", "setting": "second compound 1 µM, first compound 10 µM", "result": 3.96, "unit": "%"}, {"measurement": "viability, T/C", "setting": "[9]", "result": 77.1, "unit": "%"}, {"measurement": "viability, T/C", "setting": "[10]", "result": 75.2, "unit": "%"}, {"measurement": "viability, T/C", "setting": "second compound 3.16 µM, first compound 0.316 µM", "result": 60.3, "unit": "%"}, {"measurement": "viability, T/C", "setting": "second compound 3.16 µM, first compound 1 µM", "result": 59.1, "unit": "%"}, {"measurement": "viability, T/C", "setting": "second compound 3.16 µM, first compound 3.16 µM", "result": 48.7, "unit": "%"}, {"measurement": "viability, T/C", "setting": "second compound 3.16 µM, first compound 10 µM", "result": 3.13, "unit": "%"}, {"measurement": "viability, T/C", "setting": "[11]", "result": 70.6, "unit": "%"}, {"measurement": "viability, T/C", "setting": "[12]", "result": 68.6, "unit": "%"}, {"measurement": "viability, T/C", "setting": "second compound 10 µM, first compound 0.316 µM", "result": 54.2, "unit": "%"}, {"measurement": "viability, T/C", "setting": "second compound 10 µM, first compound 1 µM", "result": 43.5, "unit": "%"}, {"measurement": "viability, T/C", "setting": "second compound 10 µM, first compound 3.16 µM", "result": 30.7, "unit": "%"}, {"measurement": "viability, T/C", "setting": "second compound 10 µM, first compound 10 µM", "result": 1.96, "unit": "%"}]}]}
